Counter-ions that a name gives are not always drawn.
What was measured:
MAO-A = MAO-A (Homo sapiens (Human), UniProt P21397); assay: Monoamine oxidase A (MAO-A) selectivity assay (MAO-Glo); type: biochemical
[1] = system: MATN2 in MDA-MB-231 cells; assay: MATN2 level in MDA-MB-231 cells (Western blotting); type: cell-based, human; conditions: at a much higher concentration than 20 μM
Protocol: Proteins were extracted from cultured cells using cell lysis buffer (Cell Signalling Technology) with the addition of protease and phosphatase inhibitor cocktails (Pierce). Protein concentrations were measured using Pierce 660 nm protein assay reagent and SpectaMax M5 plate reader. […] Separated proteins were transferred to nitrocellulose membranes using a Trans-Blot turbo transfer system (Bio-Rad). Following blocking with Odyssey blocking buffer (Li-COR), membranes were incubated with two primary antibodies of different species at 4° C. over night. Corresponding fluorescence secondary antibodies (Li-COR) of different excitation and emission wavelengths were used to visualize the protein of interest on an Odyssey CLx infrared imaging system (Li-COR). Quantification of band fluorescent intensity was achieved using Li-COR ImageStudio. The following primary antibodies were used, anti-LOX (Sigma), anti-human MATN2 (R&D), anti-EGFR and anti-pY1068EGFR (Cell Signalling Technology), and anti-GAPDH (Millipore).
LOX inhibitors show significant reduction of MATN2 in MDA-MB-231 cells treated at 20 μM overnight.

[2] = system: TGF beta signalling (pSMAD2); type: cell-based; conditions: leading to MATN2 reduction
MAO-B = MAO-B (Homo sapiens (Human), UniProt P27338); assay: Monoamine oxidase B (MAO-B) selectivity assay (MAO-Glo); type: biochemical
Sequence of MAO-B (P27338 whole entry): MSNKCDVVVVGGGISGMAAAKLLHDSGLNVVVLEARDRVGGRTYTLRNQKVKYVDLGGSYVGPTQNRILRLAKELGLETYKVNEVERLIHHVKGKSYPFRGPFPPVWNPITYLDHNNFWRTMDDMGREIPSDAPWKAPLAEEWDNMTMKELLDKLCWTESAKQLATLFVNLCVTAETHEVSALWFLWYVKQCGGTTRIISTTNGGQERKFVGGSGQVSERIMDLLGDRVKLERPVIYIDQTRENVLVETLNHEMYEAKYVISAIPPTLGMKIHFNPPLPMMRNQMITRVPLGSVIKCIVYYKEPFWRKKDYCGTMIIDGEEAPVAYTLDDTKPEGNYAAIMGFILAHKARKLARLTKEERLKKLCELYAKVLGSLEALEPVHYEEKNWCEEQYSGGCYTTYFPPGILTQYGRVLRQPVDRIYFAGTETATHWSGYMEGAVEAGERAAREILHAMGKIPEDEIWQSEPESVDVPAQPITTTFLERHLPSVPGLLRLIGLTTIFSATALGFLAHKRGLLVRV

DAO = DAO (Sus scrofa, UniProt Q9TRC7); conditions: read-out: DAO IC50
Sequence of DAO (Q9TRC7 25-755 limits assumed): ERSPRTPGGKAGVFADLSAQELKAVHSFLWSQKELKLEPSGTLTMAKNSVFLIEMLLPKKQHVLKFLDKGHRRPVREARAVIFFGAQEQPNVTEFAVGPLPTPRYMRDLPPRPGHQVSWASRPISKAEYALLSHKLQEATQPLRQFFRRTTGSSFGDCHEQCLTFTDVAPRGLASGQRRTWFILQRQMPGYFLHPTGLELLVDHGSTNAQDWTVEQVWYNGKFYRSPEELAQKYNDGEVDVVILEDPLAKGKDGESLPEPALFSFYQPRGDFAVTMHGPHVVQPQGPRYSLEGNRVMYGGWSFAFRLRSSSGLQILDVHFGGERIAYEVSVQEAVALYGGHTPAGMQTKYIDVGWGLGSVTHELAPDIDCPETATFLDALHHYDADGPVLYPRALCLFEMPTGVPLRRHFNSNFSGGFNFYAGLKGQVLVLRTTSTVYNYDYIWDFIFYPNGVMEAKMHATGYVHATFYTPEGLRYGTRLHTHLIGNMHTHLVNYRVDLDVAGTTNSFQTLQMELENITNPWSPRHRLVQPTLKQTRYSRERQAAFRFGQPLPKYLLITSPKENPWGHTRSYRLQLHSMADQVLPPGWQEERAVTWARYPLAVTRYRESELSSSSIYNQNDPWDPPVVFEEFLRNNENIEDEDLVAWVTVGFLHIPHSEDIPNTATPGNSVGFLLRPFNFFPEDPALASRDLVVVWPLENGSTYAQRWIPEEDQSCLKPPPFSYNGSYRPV

in vivo [3] = conditions: female, mouse, po, 50 mg/kg
in vivo [4] = conditions: rat, po, 20 mg/kg

Sequence of MAO-A (P21397 whole entry): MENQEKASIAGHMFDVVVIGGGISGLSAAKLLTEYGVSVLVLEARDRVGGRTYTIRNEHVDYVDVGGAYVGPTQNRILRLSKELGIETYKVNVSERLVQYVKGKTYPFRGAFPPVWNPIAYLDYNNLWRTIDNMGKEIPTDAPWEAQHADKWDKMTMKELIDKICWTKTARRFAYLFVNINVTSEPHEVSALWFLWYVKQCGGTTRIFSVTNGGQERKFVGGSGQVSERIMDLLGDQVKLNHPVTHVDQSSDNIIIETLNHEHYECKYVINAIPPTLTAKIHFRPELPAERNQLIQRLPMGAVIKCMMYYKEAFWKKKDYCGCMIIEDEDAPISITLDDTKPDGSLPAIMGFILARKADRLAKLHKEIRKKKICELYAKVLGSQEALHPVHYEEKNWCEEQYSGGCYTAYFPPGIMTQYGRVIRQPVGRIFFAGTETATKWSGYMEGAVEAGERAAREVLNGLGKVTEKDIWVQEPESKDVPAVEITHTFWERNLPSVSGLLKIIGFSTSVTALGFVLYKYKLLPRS

With `N#CCCN` [BAPN, beta-aminopropionitrile] the MAO-A inhibition (MAO-A) was “neither inhibits”, the “reduction of MATN2” value [1] was “The same effect was seen” and the “TGF beta signalling as indicated by pSMAD2” value [2] was “increased”. The MAO-B inhibition (MAO-B) was “neither inhibits”.
For `Cc1ccc(-c2cc(S(=O)(=O)c3ccc(CN)s3)ccc2S(C)(=O)=O)cc1` [Example 82, (5-((4′-Methyl-6-(methylsulfonyl)-[1,1′-biphenyl]-3-yl)sulfonyl)thiophen-2-yl)methanamine hydrochloride], the IC50 (DAO) was > 100 µM and the bioavailability (in vivo [3]) was 74%.
For `CCc1cc(-c2ccc[n+]([O-])c2)cc(S(=O)(=O)c2cnc(CN)s2)c1` [Example 113, 3-(3-((2-(Aminomethyl)thiazol-5-yl)sulfonyl)-5-ethylphenyl)pyridine 1-oxide hydrochloride], the IC50 (DAO) was > 100 µM.
For `Cn1cc(-c2cccc(S(=O)(=O)c3cnc(CN)s3)c2)cn1` [Example 116, (5-((3-(1-Methyl-1H-pyrazol-4-yl)phenyl)sulfonyl)thiazol-2-yl)methanamine], the IC50 (DAO) was > 100 µM.
With `CN(C)C(=O)c1cc(-c2ccccc2)cc(S(=O)(=O)c2cnc(CN)s2)c1` [Example 125, 5-((2-(Aminomethyl)thiazol-5-yl)sulfonyl)-N,N-dimethyl-[1,1′-biphenyl]-3-carboxamide dihydrochloride] the IC50 (DAO) was > 100 µM.
With `NCc1ncc(S(=O)(=O)c2cc(C(=O)O)cc(-c3ccccc3)c2)s1` [Example 126, 5-((2-(Aminomethyl)thiazol-5-yl)sulfonyl)-[1,1′-biphenyl]-3-carboxylic acid ditrifluoroacetate] the bioavailability (in vivo [4]) was 33% and the bioavailability (in vivo [3]) was 67%.
In the case of `Cn1cc(-c2cc(F)cc(S(=O)(=O)c3cnc(CN)s3)c2)cn1` [Example 131, (5-((3-Fluoro-5-(1-methyl-1H-pyrazol-4-yl)phenyl)sulfonyl)thiazol-2-yl)methanamine trihydrochloride], the IC50 (DAO) is reported as > 100 µM.
With `Cn1cc(-c2cc(C(=O)O)cc(S(=O)(=O)c3cnc(CN)s3)c2)cn1` [Example 150, 3-((2-(Aminomethyl)thiazol-5-yl)sulfonyl)-5-(1-methyl-1H-pyrazol-4-yl)benzoic acid tihydrochloride] the IC50 (DAO) was > 100 µM.
